Measurements: PMC7213079, “Hit Identification of New Potent PqsR Antagonists as Inhibitors of Quorum Sensing in Planktonic and Biofilm Grown Pseudomonas aeruginosa” (Frontiers in Chemistry, 2020)
“Also recorded” adds a separate entry of the source.

Tests used:
Format in all cases: cell-based, Pseudomonas aeruginosa
PAO1-L = assay: Pyocyanin quantification, PAO1-L; conditions: compound at 3 x IC50, 16 h, compared with the control
Excerpt: (§1) Pyocyanin is an important virulence factor for P. aeruginosa infections and in particular respiratory and urinary tract infections. Pyocyanin is a redox-active phenazine the production of which is regulated via PqsR and PqsE (Hall et al., [2016]; Rampioni et al., [2016]; Higgins et al., [2018]). Therefore, pyocyanin production serves as an indirect readout of the activity of the pqs QS system. […] Compound 40 reduced pyocyanin production by over 80% in both strains in agreement with bioreporter assay results.
(§2) Figure 4 Pyocyanin production by Pseudomonas aeruginosa after treatment with pqs inhibitors 8, 14, 23, 34, 25, 26, and 40. Quantification of pyocyanin production after inhibitor treatment at 3 × IC50 for both PAO1-L and PA14. The graph represents the average of three independent experiments carried out in triplicate (n = 9).
(§3) PAO1-L Wild type PAO1, Lausanne subline. B.
(§4) PAO1-L mCTX::PpqsA- PAO1-L with chromosomal mini-CTX::PpqsA-lux (Soukarieh lux insertion; TcR et al., 2018)
(§5) PA14 Wild type UCBPP-PA14 (Rahme et
(§6) PA14 mCTX::PpqsA-lux PA14 with chromosomal mini-CTX::PpqsA-lux (Soukarieh insertion; TcR et al., 2018) […]
(§7) Pyocyanin quantification: […]
(§8) Pyocyanin pigment was extracted into chloroform by mixing 7.5 mL of supernatant with 4.5 mL of chloroform. Pyocyanin w as further extracted into 1.5 mL of 0.2 M HCL which gave a pink/red solution and the absorbance was measured at 520 nm.

PA14 = assay: Pyocyanin quantification, PA14; conditions: PA14, compound at 3 x IC50, 16 h, compared with the control
Excerpt: as §1, §2, §3, §4, §5, §6, §7, §8

PAO1-L biofilm cultures = assay: AQ quantification in biofilm cultures; conditions: M9 minimal medium, 10 μM, 18 h, versus DMSO control
Excerpt: Biofilms are a major challenge in the treatment of chronic P. aeruginosa infections because of their resilience and protection of bacteria from environmental stresses such as those posed by the host immune system and antimicrobial agents (Flemming et al., [2007]; Rybtke et al., [2015]). Many genes that are involved in biofilm formation are directly linked to pqs QS signaling (Rampioni et al., [2016]; Lin et al., [2018]). To evaluate the effect of 40 on AQ signaling in biofilm cultures, PAO1-L was grown in M9 minimal medium and challenged with either DMSO control or of 40 (10 μM). Following incubation and cell removal, supernatants were subjected to LC/MS-MS analysis.
Figure 6 Quantification of AQ concentrations in PAO1-L biofilm cultures treated with 40 (10 μM). […] Biofilms were grown in M9 minimal medium for 18 h in 24-well glass bottom plates and supernatants extracted for AQ analysis. […]
screening of the LC eluent for specific AQ analytes. Where chromatographic peaks for HHQ and PQS were detected, a peak area was determined and analyte peak area/internal standard peak area calculated.
AQ quantification in biofilm cultures: […]
For this experiment, the P. aeruginosa PAO1-L strain and M9 minimal medi um were used. […] The supernatant was col lected and the AQ extraction and quantification were performed following the LC MS/MS protocol described above . […]

Cn1c2ccccc2c2nnc(SCC(=O)Nc3ccc(Oc4ccccn4)cc3)nc21 [Compound 40, 2-((5-Methyl-5H-[1,2,4]triazino[5,6-b]indol-3-yl)thio)-N-(4-(pyridin-2-yloxy)phenyl)acetamide]
inhibition of pyocyanin production (PAO1-L): over 80%
inhibition of pyocyanin production (PA14): over 80%
biosynthesis of AQ signals in biofilm cultures (PAO1-L biofilm cultures): effectively inhibit; also recorded: drastically reduced
